Literature values as cited in patent publication US9398745B2, “Organic composition for protection of crops against black frost and the method for its application” (priority 2014, dated 2016).

Test system: animals
Details: tests performed on animals

CC(O)CO (stereo not shown) [1,2 propanediol]
toxicity: low toxicity
